The subject of this data set is GENE-TOX genotoxicity assays, various organisms and cells. Kind of data set: GENE-TOX mutagenicity studies. The note with it: for call: Assay Type: In vivo carcinogenicity studies, Assay Code: CCG+.
[1] abbreviates: Species/Cell Type: Escherichia coli polA (W3119 vs P3478), Assay Type: Rec-assay, DNA effects (bacterial DNA repair), Assay Code: RE1-, Evaluation Type: Evaluation A (Pre-1980).
Setting [2] is: Species/Cell Type: Salmonella typhimurium (one or more of the five standard strains: TA98, TA100, TA1535, TA1537, and TA1538), Assay Type: Histidine reverse gene mutation, Ames assay, Assay Code: SALT, Evaluation Type: Evaluation A (Pre-1980).
The mark [3] stands for this setting: Species/Cell Type: Allium cepa, Assay Type: Chromosome aberrations, Assay Code: ALC-, Evaluation Type: Evaluation A (Pre-1980).
The mark [4] stands for this setting: Species/Cell Type: Chinese hamster lung (V79) cells, Assay Type: Forward gene mutation at the HPRT or ouabain locus, Assay Code: V79+, Evaluation Type: Evaluation A (Pre-1980).
Setting [5] is: Species/Cell Type: Nonhuman, Evaluation Type: Evaluation A (Pre-1980).
Setting [6] is: Species/Cell Type: Nonhuman, Assay Type: Sister-chromatid exchange (SCE) in vitro, Assay Code: SC2+D, Dose Response: With dose response, Evaluation Type: Evaluation B (Post-1980).
Setting [7] is: Species/Cell Type: Salmonella typhimurium (one or more of the five standard strains: TA98, TA100, TA1535, TA1537, and TA1538), Assay Type: Histidine reverse gene mutation, Ames assay, Assay Code: SAL+, Evaluation Type: Evaluation A (Pre-1980).
Where [8] appears, read: Species/Cell Type: Human, Assay Type: Sister-chromatid exchange (SCE) in vitro, Assay Code: SC1T, Evaluation Type: Evaluation B (Post-1980).
The mark [9] stands for this setting: Species/Cell Type: Nonhuman, Assay Type: Sister-chromatid exchange (SCE) in vitro, Assay Code: SC2T, Evaluation Type: Evaluation B (Post-1980).
Setting [10] is: Species/Cell Type: Salmonella typhimurium (one or more of the five standard strains: TA98, TA100, TA1535, TA1537, and TA1538), Assay Type: Histidine reverse gene mutation, Ames assay, Assay Code: SAL+*, Activation: With metabolic activation, Evaluation Type: Evaluation A (Pre-1980).
The mark [11] stands for this setting: Species/Cell Type: Saccharomyces cerevisiae, Assay Type: Mitotic recombination or gene conversion, Assay Code: YEC-, Evaluation Type: Evaluation A (Pre-1980).
Where [12] appears, read: Species/Cell Type: Bacillus subtilis (H17 vs M45), Assay Type: Rec-assay, spot test, DNA effects (bacterial DNA repair), Assay Code: REWT, Evaluation Type: Evaluation A (Pre-1980).

The source made the active and inactive calls. How the calls were made is not given here.

In the case of `CC(C)(C)Br`, the mutagenic call under setting [1] is “inactive; negative”.
Regarding `Cn1c(=O)c(N)c(-c2ccccc2)c2cc(Cl)ccc21`, the mutagenic call under setting [2] was “no conclusion”.
As to `OC1CCCCC1`, the mutagenic call under setting [3] is “inactive; negative”.
Take `O=NN(CCCl)C(=O)NCCCl`: the mutagenic call runs as follows: under setting [4], “active; positive”; (Species/Cell Type: Drosophila melanogaster, Assay Type: Sex-linked recessive lethal gene mutation, Assay Code: SRL+, Evaluation Type: Evaluation A (Pre-1980)) “active; positive”; (Species/Cell Type: Human lymphocytes, Assay Type: Sister-chromatid exchange (SCE) in vitro, Assay Code: SCL+, Evaluation Type: Evaluation B (Post-1980)) “active; positive”; (Species/Cell Type: Human, Assay Type: Sister-chromatid exchange (SCE) in vitro, Assay Code: SC1+D, Dose Response: With dose response, Evaluation Type: Evaluation B (Post-1980)) “active; positive”; under setting [6], “active; positive”; (Species/Cell Type: Nonhuman, Assay Type: Sister-chromatid exchange (SCE) in vivo, Assay Code: SC3+D, Dose Response: With dose response, Evaluation Type: Evaluation B (Post-1980)) “active; positive”. Moreover, the mutagenic call is, setting by setting: (Species/Cell Type: Saccharomyces cerevisiae, Assay Type: Mitotic recombination or gene conversion, Assay Code: YEC+, Evaluation Type: Evaluation A (Pre-1980)) “active; positive”; under setting [7], “active; positive”. For the same compound, under setting [5], the call was “active; positive”.
On to `COc1ccc2c3c4n(c2c1)[C@@H](C=C(C)C)OOC(C)(C)C[C@@H]4N1C(=O)[C@@H]2CCCN2C(=O)[C@]1(O)[C@H]3O`, for which the mutagenic call is “inactive; negative” (Species/Cell Type: Saccharomyces cerevisiae, Assay Type: Mitotic recombination or gene conversion, Assay Code: YEH-, Evaluation Type: Evaluation A (Pre-1980)) and “no conclusion” under setting [2].
As to `CCCCC[C@H](O)/C=C/[C@@H]1[C@@H](C/C=C\CCCC(=O)O)[C@@H](O)C[C@H]1O`, the mutagenic call (Species/Cell Type: Rabbit, Sex: Male, Assay Type: Sperm morphology, Assay Code: SPR+, Evaluation Type: Evaluation A (Pre-1980)) was “active; positive”.
With `CN(C)C(=S)SSC(=S)N(C)C`, the mutagenic call (Species/Cell Type: Bacillus subtilis (H17 vs M45), Assay Type: Rec-assay, spot test, DNA effects (bacterial DNA repair), Assay Code: REW+, Evaluation Type: Evaluation A (Pre-1980)) was “active; positive” and the mutagenic call (Species/Cell Type: Mammalian polychromatic erythrocytes, Assay Type: Micronucleus test, chromosome aberrations, Assay Code: MNT+, Evaluation Type: Evaluation A (Pre-1980)) was “active; positive”.
For the compound `N[C@@H]1CONC1=O`, the mutagenic call under setting [1] was “inactive; negative”.
Regarding `CCCCC/C=C\C/C=C\C/C=C\C/C=C\CCCC(=O)O`, the mutagenic call runs as follows: under setting [8], “no conclusion”; (Species/Cell Type: Mammalian polychromatic erythrocytes, Assay Type: Micronucleus test, chromosome aberrations, Assay Code: MNTT, Evaluation Type: Evaluation B (Post-1980)) “no conclusion”; under setting [9], “no conclusion”.
On to `COc1ccc2c3c([nH]c2c1)[C@H](CC(C)(C)O)N1C(=O)[C@@H]2CCCN2C(=O)[C@]1(O)[C@H]3O`, for which the mutagenic call under setting [2] was “no conclusion”.
Take `CN(C)C=O`: the mutagenic call reads like this: (Species/Cell Type: Mammalian polychromatic erythrocytes, Assay Type: Micronucleus test, chromosome aberrations, Assay Code: MNTT, Evaluation Type: Evaluation A (Pre-1980)) “no conclusion”; (Species/Cell Type: Mouse, Sex: Male, Assay Type: Sperm morphology, Assay Code: SPI-, Evaluation Type: Evaluation A (Pre-1980)) “inactive; negative”; (Species/Cell Type: Nonhuman, Assay Type: Sister-chromatid exchange (SCE) in vitro, Assay Code: SC2+, Evaluation Type: Evaluation B (Post-1980)) “active; positive”; (Species/Cell Type: Rat primary hepatocytes, Assay Type: Unscheduled DNA synthesis (UDS) in vitro, DNA effects, Assay Code: UDP-, Evaluation Type: Evaluation A (Pre-1980)) “inactive; negative”; (Species/Cell Type: Syrian hamster embryo (SHE) cells, Assay Type: Cell transformation, clonal assay, Assay Code: CTC-, Evaluation Type: Evaluation A (Pre-1980)) “inactive; negative”.
Take `O=c1[nH]c2ccccc2n1CCCN1CCC(n2c(=O)[nH]c3cc(Cl)ccc32)CC1`: the mutagenic call (Species/Cell Type: Mammalian polychromatic erythrocytes, Assay Type: Micronucleus test, chromosome aberrations, Assay Code: MNT+U, Dose Response: Unconfirmed positive response, Evaluation Type: Evaluation B (Post-1980)) was “active; positive”.
Take `CCN(CC)Cc1cc(Br)ccc1OCC(=O)N/N=C/c1ccc(O)c(OC)c1`: the mutagenic call (Species/Cell Type: Saccharomyces cerevisiae, Assay Type: Reverse gene mutation, Assay Code: YERT, Evaluation Type: Evaluation A (Pre-1980)) was “no conclusion”.
Consider `O=O`, for which, under setting [4], the mutagenic call is “active; positive”.
With `Cc1cc2c(c3ccc4ccccc4c13)CCC2=O`, the mutagenic call was “active; positive” (Species/Cell Type: Human lymphocytes, Assay Type: Sister-chromatid exchange (SCE) in vitro, Assay Code: SCL+D*, Activation: With metabolic activation, Dose Response: With dose response, Evaluation Type: Evaluation B (Post-1980)); “active; positive” (Species/Cell Type: Human, Assay Type: Sister-chromatid exchange (SCE) in vitro, Assay Code: SC1+D*, Activation: With metabolic activation, Dose Response: With dose response, Evaluation Type: Evaluation B (Post-1980)); “active; positive” (Species/Cell Type: Nonhuman, Assay Type: Sister-chromatid exchange (SCE) in vivo, Assay Code: SC3+, Evaluation Type: Evaluation B (Post-1980)); “active; positive” under setting [10].
`O=C(O)CSc1ccc2c3c(cccc13)C(=O)c1ccccc1-2`: the mutagenic call under setting [7] was “active; positive”.
With `CN(C)CCCN1c2ccccc2Sc2ccc(C(F)(F)F)cc21`, the mutagenic call reads like this: (Species/Cell Type: Nonhuman bone marrow, Assay Type: Chromosome aberrations, in vivo, Assay Code: CY#-, Evaluation Type: Evaluation A (Pre-1980)) “inactive; negative”; (Species/Cell Type: Nonhuman, Assay Type: Chromosome aberrations in vitro, Assay Code: CY&+, Evaluation Type: Evaluation A (Pre-1980)) “active; positive”; (Species/Cell Type: Rodents, Sex: Male, Assay Type: Dominant lethal test, Assay Code: DLT+, Evaluation Type: Evaluation A (Pre-1980)) “active; positive”; (Species/Cell Type: Salmonella typhimurium, Assay Type: Forward and reverse gene mutation, host-mediated assay, Assay Code: HMA-, Evaluation Type: Evaluation A (Pre-1980)) “inactive; negative”.
Consider `O=[N+]([O-])c1ccc(O/N=C/c2cc(Br)c(O)c(Br)c2)c([N+](=O)[O-])c1`, for which, under setting [11], the mutagenic call was “inactive; negative”.
As to `Nc1ccc(Oc2ccc(N)cc2)cc1`, the call under setting [5] is “active; positive”. The mutagenic call (Species/Cell Type: Nonhuman, Assay Type: Sister-chromatid exchange (SCE) in vivo, Assay Code: SC3T, Evaluation Type: Evaluation B (Post-1980)) is on record as “no conclusion”.
On to `O=c1[nH]c(=O)n([C@H]2C[C@H](O)[C@@H](CO)O2)cc1Cl`, for which the mutagenic call runs as follows: (Species/Cell Type: Chinese hamster ovary (CHO) cells, Assay Type: Forward gene mutation at the HPRT locus, Assay Code: CHO+, Evaluation Type: Evaluation B (Post-1980)) “active; positive”; under setting [6], “active; positive”.
`O=S1(=O)OC2(c3ccc(O)cc3Oc3cc(O)ccc32)c2ccccc21`: the mutagenic call under setting [2] is “no conclusion”.
In the case of `Nc1c(Cl)cc([N+](=O)[O-])cc1Cl`, the mutagenic call reads like this: (Species/Cell Type: Aspergillus nidulans, Assay Type: Aneuploidy, chromosome aberrations, Assay Code: ASNT, Evaluation Type: Evaluation A (Pre-1980)) “no conclusion”; under setting [12], “no conclusion”; (Species/Cell Type: Hordeum vulgare (barley), Assay Type: Chromosome aberrations, Assay Code: HOC+, Evaluation Type: Evaluation A (Pre-1980)) “active; positive”; (Species/Cell Type: Vicia faba, Assay Type: Chromosome aberrations, Assay Code: VIC+, Evaluation Type: Evaluation A (Pre-1980)) “active; positive”.
Regarding `Nc1nc(-c2ccccc2)cs1`, where the note is “Species/Cell Type: Bacillus subtilis (H17 vs M45), Assay Type: Rec-assay, spot test, DNA effects (bacterial DNA repair), Assay Code: REW-, Evaluation Type: Evaluation A (Pre-1980)”, the mutagenic call was “inactive; negative”.
As to `O=[N+]([O-])c1ccccc1O`, the mutagenic call under setting [3] was “inactive; negative”.
Take `CN(C)S(=O)(=O)N(SC(F)(Cl)Cl)c1ccccc1`: the mutagenic call reads like this: under setting [12], “no conclusion”; under setting [11], “inactive; negative”.
Take `CCc1ccc(O)cc1`: the mutagenic call reads like this: (Species/Cell Type: Human lymphocytes, Assay Type: Sister-chromatid exchange (SCE) in vitro, Assay Code: SCLT, Evaluation Type: Evaluation B (Post-1980)) “no conclusion”; under setting [8], “no conclusion”.
For the compound `Cc1cc2ccccc2c2ccc3c(c12)CCC3=O`, the mutagenic call under setting [10] was “active; positive”.
With `Clc1cc(Cl)c(OCC#CI)cc1Cl`, the mutagenic call (Species/Cell Type: Neurospora crassa, Assay Type: Aneuploidy, chromosome aberrations, Assay Code: NEN-, Evaluation Type: Evaluation A (Pre-1980)) is “inactive; negative”.
As for `Cc1cc2c(c3ccc4ccccc4c13)CCC2C` (centres undefined), the mutagenic call under setting [10] was “active; positive”.
With `Cc1cn([C@H]2CC[C@@H](COP(=O)(O)OP(=O)(O)OP(=O)(O)O)O2)c(=O)[nH]c1=O`, under setting [9], the mutagenic call was “no conclusion”.

Values taken from PubChem BioAssay AID1259408 (Genetic Toxicology Data Bank (GENE-TOX), 2018).
